Series [1] can be described thus: Metabolic stability in pooled human liver microsomes. The conditions noted are these: pH 7.6, 1 μM compound, 37° C., NADPH, read-out: Half-life - t½ human liver microsomes. The class given is in vitro ADME. An excerpt: Stability in human liver microsomes refers to the susceptibility of compounds to biotransformation in the context of selecting and/or designing drugs with favorable pharmacokinetic properties. The primary site of metabolism for many drugs is the liver. Human liver microsomes contain the cytochrome P450s (CYPs), and thus represent a model system for studying drug metabolism in vitro Enhanced stability in human liver microsomes is associated with several advantages, including increased bioavailability and adequate half-life, which can enable lower and less frequent dosing of patients. Thus, enhanced stability in human liver microsomes is a favorable characteristic for compounds that are to be used for drugs.
The metabolic degradation of the test compound was assayed at 37° C. with pooled human liver microsomes. The final incubation volume of 60 μl per time point contains TRIS buffer pH 7.6 at room temperature (0.1 M), magnesium chloride (5 mM aqueous solution), microsomal protein (1 mg/mL for human) and the test compound at a final concentration of 1 μM. Following a short preincubation period at 37° C., the reactions were initiated by addition of betanicotinamide adenine dinucleotide phosphate, reduced form (NADPH, 1 mM), and terminated by transferring an aliquot into acetonitril after different time points. After centrifugation (10000 g, 5 min), an aliquot of the supernatant was assayed by HPLC-MS/MS as described above for the MDCK assay P-gp for the amount of parent compound. The half-life was determined by the slope of the semi-logarithmic plot of the concentration-time profile.
Background: Liver microsomes are vesicles of endoplasmic reticulum, rich in cytochrome P450 enzymes.

Another series addresses T1, MDR1 (P-gp) (Homo sapiens, UniProt P08183).
T1 construct: expressed in transfected cells; host or cells: MDCKII (Madin-Darby canine kidney)
Put plainly: MDCK assay P-gp (permeability across MDCK-MDR1 monolayers). The class given is in vitro ADME. The conditions noted are these: for Papp A→B at 2 h: apical-to-basal, MDCK-MDR1 monolayers, pH 7.4; for efflux ratio at 2 h: pH 7.4, Papp (b-a) divided by Papp (a-b), MDCK-MDR1, read-out: efflux ratio PEBA/PEAB. How it is done: The MDCK assays provide information on the potential of a compound to pass the blood brain barrier. Permeability measurements across polarized, confluent MDCK-MDR1 cell monolayers grown on permeable filter supports are used as an in vitro absorption model: apparent permeability coefficients (PE) of the compounds across the MDCK-MDR1 cell monolayers are measured (pH 7.4, 37° C.) in apical-to-basal (AB) and basal-to-apical (BA) transport direction. The AB permeability (PEAB) represents drug absorption from the blood into the brain and the BA permeability (PEBA) drug efflux from the brain back into the blood via both, passive permeability as well as active transport mechanisms mediated by efflux and uptake transporters that are expressed on the MDCK-MDR1 cells, predominantly by the overexpressed human MDR1. Identical or similar permeabilities in both transport directions indicate passive permeation (PEBA/PEAB≤1), vectorial permeability points to additional active transport mechanisms. Higher PEBA than PEAB (PEBA/PEAB>5) indicates the involvement of active efflux mediated by MDR1, which might compromise the goal to achieve sufficient brain exposure. Therefore, this assay provides valuable support for selection of compounds applicable for further in vivo testing. High permeability not limited by efflux at the blood brain barrier is a favorable characteristic for compounds that are to be used for drugs acting primarily in the CNS.
Apparent permeability coefficients (Papp) of the compounds across the MDCK-MDR1 monolayers (MDCKII cells transfected with human MDR1 cDNA expression plasmid) are measured in apical-to-basal (AB) and basal-to-apical (BA) direction. MDCK-MDR1 cells (6×10^5 cells/cm^2) are seeded on filter inserts (Corning, Transwell, polycarbonate, 0.4 μm pore size) and cultured for 9 to 10 days. Compounds dissolved in DMSO stock solution (1-20 mM) are diluted with HTP-4 aqueous buffer (128.13 mM NaCl, 5.36 mM KCl, 1 mM MgSO4, 1.8 mM CaCl2, 4.17 mM NaHCO3, 1.19 mM Na2HPO4, 0.41 mM NaH2PO4, 15 mM HEPES, 20 mM glucose, pH 7.4) supplemented with 0.25% BSA to prepare the transport solutions (final concentration: 1 or 10 μM, final DMSO<=0.5%). The transport solution is applied to the apical or basolateral donor side for measuring A-B or B-A permeability, respectively. The receiver side contains HTP-4 buffer supplemented with 0.25% BSA. Samples are collected at the start and end of experiment from the donor and at various time intervals for up to 2 hours also from the receiver side for concentration measurement by HPLC-MS/MS (RapidFire High-throughput MS System (Agilent) coupled to QTrap 6500 (AB Sciex) or TSQ Vantage (Thermo Scientific)). Sampled receiver volumes are replaced with fresh receiver solution. Efflux ratio is calculated dividing the Papp (b-a) values by the Papp (a-b) values.

Another series deals with Nav1.6 (Homo sapiens, UniProt Q9UQD0). As to the kind of experiment: Nav 1.6 inhibition, IonWorks Quattro electrophysiology. The class given is cell-based. The conditions noted are these: for inhibition at 1 µM / inhibition at 5 µM: normalized to vehicle control (0%) and maximal inhibition control (100%). A digest of the protocol:
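Human Nav1.6 currents recorded on IonWorks Quattro with amphotericin B (200 μg/ml) perforated access; compounds at final 1 and 5 μM in 0.3% DMSO. Cells held at −120 mV, prepulsed to 0 mV for 2500 ms, 10 ms recovery at −120 mV, then 20 ms test pulse to 0 mV; values are normalized percentage inhibition.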

The term half-life denotes the time in which the quantity being followed falls by half. Usually Papp A→B stands for the apparent permeability from the apical to the basolateral side of a cell layer. High values mean fast passage, low ones slow passage. The term inhibition denotes the relative decrease from the control value, in per cent.

T1 sequence (P08183 whole entry): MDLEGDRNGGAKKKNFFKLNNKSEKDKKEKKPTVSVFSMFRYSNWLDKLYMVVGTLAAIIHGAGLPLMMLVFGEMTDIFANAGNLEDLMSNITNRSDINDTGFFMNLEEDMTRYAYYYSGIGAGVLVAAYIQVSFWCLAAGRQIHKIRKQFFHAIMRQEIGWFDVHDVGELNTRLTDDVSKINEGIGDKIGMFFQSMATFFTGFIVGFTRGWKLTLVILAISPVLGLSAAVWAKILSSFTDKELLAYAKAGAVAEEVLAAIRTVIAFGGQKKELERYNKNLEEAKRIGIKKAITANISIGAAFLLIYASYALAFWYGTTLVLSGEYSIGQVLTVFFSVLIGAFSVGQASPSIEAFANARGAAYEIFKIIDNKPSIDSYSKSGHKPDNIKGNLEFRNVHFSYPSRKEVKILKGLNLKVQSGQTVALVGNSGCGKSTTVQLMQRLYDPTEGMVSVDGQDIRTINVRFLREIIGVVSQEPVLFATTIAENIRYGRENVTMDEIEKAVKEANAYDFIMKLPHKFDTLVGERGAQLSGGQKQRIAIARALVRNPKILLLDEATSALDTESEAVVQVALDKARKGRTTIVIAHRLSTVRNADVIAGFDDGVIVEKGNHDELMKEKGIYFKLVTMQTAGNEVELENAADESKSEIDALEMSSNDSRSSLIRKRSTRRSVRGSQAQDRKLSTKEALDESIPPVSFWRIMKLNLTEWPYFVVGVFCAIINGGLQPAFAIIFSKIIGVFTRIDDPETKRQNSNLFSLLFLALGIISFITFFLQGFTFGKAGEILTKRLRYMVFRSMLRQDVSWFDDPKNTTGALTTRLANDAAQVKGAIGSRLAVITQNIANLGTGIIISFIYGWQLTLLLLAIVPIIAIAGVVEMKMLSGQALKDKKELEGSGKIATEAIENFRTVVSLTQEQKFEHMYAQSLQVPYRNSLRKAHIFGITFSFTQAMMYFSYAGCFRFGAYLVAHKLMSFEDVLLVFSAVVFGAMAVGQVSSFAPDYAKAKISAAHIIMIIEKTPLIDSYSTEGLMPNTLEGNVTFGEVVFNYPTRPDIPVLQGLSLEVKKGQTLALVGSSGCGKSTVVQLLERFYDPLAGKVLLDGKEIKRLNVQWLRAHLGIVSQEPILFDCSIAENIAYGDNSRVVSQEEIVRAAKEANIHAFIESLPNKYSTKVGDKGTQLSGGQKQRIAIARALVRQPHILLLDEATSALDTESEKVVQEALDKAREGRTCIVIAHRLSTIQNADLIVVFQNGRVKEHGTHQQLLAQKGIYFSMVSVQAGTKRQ
Nav1.6, sequence (Q9UQD0 whole entry): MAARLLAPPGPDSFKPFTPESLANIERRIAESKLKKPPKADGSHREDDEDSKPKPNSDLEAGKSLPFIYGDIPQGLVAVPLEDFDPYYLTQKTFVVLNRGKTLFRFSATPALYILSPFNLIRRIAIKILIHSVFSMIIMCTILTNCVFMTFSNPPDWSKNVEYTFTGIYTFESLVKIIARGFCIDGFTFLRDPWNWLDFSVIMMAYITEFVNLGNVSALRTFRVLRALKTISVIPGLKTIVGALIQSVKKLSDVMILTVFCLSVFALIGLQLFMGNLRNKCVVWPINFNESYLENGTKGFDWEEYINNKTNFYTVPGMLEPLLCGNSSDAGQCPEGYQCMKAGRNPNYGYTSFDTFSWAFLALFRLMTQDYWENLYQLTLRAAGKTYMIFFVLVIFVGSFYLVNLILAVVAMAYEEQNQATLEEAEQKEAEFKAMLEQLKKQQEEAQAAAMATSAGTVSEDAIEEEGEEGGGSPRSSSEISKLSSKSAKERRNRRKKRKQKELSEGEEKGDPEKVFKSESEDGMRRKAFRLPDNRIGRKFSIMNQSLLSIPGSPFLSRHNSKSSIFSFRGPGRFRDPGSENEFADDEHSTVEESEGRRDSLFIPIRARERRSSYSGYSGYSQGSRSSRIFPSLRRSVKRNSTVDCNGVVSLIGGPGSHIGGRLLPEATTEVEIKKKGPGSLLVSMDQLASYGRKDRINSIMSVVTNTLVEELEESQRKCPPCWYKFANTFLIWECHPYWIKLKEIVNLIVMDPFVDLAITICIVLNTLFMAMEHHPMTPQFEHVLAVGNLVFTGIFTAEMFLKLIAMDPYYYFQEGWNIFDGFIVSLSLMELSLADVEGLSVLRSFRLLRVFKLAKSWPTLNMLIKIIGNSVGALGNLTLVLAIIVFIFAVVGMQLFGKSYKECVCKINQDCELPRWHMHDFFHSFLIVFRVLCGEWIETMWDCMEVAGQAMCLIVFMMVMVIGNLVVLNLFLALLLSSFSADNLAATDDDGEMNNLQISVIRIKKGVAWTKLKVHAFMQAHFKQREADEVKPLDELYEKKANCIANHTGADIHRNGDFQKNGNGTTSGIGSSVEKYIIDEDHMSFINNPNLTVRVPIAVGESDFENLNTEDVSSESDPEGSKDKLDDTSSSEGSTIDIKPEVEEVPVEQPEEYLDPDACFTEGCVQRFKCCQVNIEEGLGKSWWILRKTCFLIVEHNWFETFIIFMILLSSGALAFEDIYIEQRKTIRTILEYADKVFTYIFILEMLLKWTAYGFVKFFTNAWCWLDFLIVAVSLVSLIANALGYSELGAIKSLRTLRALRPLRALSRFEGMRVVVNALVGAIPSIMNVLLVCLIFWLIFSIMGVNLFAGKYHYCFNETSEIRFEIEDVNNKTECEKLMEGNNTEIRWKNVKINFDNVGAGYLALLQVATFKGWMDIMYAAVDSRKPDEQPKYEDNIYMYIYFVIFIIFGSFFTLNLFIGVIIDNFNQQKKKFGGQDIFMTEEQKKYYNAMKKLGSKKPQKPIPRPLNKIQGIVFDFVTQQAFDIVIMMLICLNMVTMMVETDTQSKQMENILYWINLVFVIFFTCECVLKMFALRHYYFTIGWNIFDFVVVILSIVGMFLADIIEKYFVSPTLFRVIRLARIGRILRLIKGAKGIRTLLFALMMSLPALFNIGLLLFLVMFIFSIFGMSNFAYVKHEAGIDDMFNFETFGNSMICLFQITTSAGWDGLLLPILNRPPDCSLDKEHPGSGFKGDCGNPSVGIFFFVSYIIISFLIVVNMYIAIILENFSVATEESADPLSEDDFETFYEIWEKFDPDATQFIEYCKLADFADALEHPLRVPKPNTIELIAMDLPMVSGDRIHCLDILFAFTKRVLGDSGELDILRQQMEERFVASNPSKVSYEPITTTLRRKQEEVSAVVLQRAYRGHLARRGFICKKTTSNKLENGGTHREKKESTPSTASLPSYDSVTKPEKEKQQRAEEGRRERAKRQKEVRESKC

Take `CNC(=O)[C@@H]1CN(Cc2ccc(Oc3ccccc3Cl)nc2)CCO1` [Example 17]: the half-life at 1 μM in series [1] was above 2.17 h. For the same compound, at MDR1 (P-gp), the Papp A→B at 2 h turned out to be 67 ×10⁻⁶ cm/s and the efflux ratio at 2 h worked out at 0.6. For the same compound, on Nav1.6, the inhibition at 1 µM came to 22% and the inhibition at 5 µM was -4.3%.
Turning to `CNC(=O)[C@@H]1CN(Cc2ccc(Oc3ccccc3F)nc2)CCO1` [Example 19], the half-life at 1 μM in series [1] was above 2.17 h. In addition, on MDR1 (P-gp), the Papp A→B at 2 h was determined as 75 ×10⁻⁶ cm/s and the efflux ratio at 2 h came out at 0.7. In addition, at Nav1.6, the inhibition at 1 µM was 5.2% and the inhibition at 5 µM was -6.3%. The “significant inhibition of the Nav 1.6 channel (in words)” value at Nav1.6 (at 5 μM) is given as “not showing any significant inhibition”.
In the case of `CNC(=O)[C@@H]1CN(Cc2ccc(Oc3ccc(C)cc3)nc2)CCO1` [Example 29], the half-life at 1 μM in series [1] is above 2.17 h. Further, at MDR1 (P-gp), the Papp A→B at 2 h is 58 ×10⁻⁶ cm/s and the efflux ratio at 2 h amounted to 0.8. For the same compound, on Nav1.6, the inhibition at 1 µM came out at 1.8% and the inhibition at 5 µM stood at 3%.
The matching figures for `CNC(=O)[C@@H]1CN(Cc2ccc(Oc3ccc(F)cc3)cn2)CCO1` [Example 30]: above 2.17 h, 86 ×10⁻⁶ cm/s, 0.5, 7.6% and 6.8%.
